In brackets after ≈: the same amount, converted by molar mass.
Assays:
MRSA USA300 [1] = assay: MIC50 determination and initial screening from OD600 growth curves, MRSA USA300; format: cell-based, Staphylococcus aureus; conditions: Staphylococcus aureus, 15 h, Table S3, conversion of the mM values of Table 1; MRSA USA300; after 900 mins
Text: (§1) The antimicrobial activity of SSAs 1–14 was established against both a model Gram-positive, clinically relevant methicillin resistant Staphylococcus aureus (MRSA), and a model Gram-negative, E. coli bacteria, Table 1. Here MIC50 values are given in mM to enable the derivation of molecular structure: antimicrobial efficacy: physical property relationships. […]
(§2) Data were acquired in endpoint mode. […]
(§3) Section 3: Microbial Methods
(§4) These methods were taken directly from UK Health and Security Office (UKHSA) standard operating […]
(§5) Preparation of Luria Broth media (LB): Yeast extract (5 g), tryptone (10 g) and sodium chloride (10 g) were dissolved in dH₂O (1 L) then divided into bottles and autoclaved.
(§6) Preparation of Luria Broth (LB) agar plates: Agar (6 g) was added to LB (400 mL) and autoclaved. Once cool, the LB agar was poured into sterile petri dishes under sterile conditions and allowed to set. LB plates were stored at 4 °C until use.
(§7) Preparation of bacterial plates: Sterile LB agar plates were streaked using Escherichia coli DH10B or USA300 Methicillin-Resistant Staphylococcus aureus then incubated at 37 °C overnight.
(§8) Preparation of Inoculum: An initial culture was made up by inoculating LB media (5 mL) with a single colony of bacteria under sterile conditions and incubated at 37 °C with shaking overnight. The following day, overnight bacterial cultures were subcultured into fresh LB medium to a starting OD600 […]
(§9) Preparation of 96 well microplate for screening: 20 mM solutions of each compound to be tested were made up using 5 % ethanol. The 1:100 cell suspension (150 µL) was pipetted into the wells and SSA compound solutions (30 µL) were added into each well. The final screening concentration for each compound was 3.3 mM in the well. These were incubated for 20 hours in a plate reader, with optical density readings being taken at 600 nm every 15 minutes. Optical density readings were plotted against time to produce growth curves. […]
(§10) individual wells under sterile conditions. Compounds (30 µL) were added to the wells to equal a total volume of 180 µL in the wells. Six repeats of each concentration for each compound were created each plate. The plates were sealed using parafilm, then incubated at 37°C in a microplate reader for 18-25 hours. Optical density readings were taken at 600 nm every 15 min. Data was used to generate […]
(§11) Calculation of MIC50: Growth curves were plotted using OD600 optical density readings in Microsoft ® Excel ® 2013. OD600 optical density readings 900 minutes from the start of each of these growth cultures for each concentration of compound were plotted in Origin ® 2015. The resultant curve was normalized and fitted using the Boltzmann fit to define the MIC50 values for each compound.

MRSA USA300 [2] = conditions: n = 3, 0.5 McFarland standard, after 900 min, number in bracket = efficacy rank; cited from earlier work
E. coli DH10B [3] = conditions: after 900 min, cited from earlier work
[4] = system: calcein loaded phospholipid vesicles (PC, PG, PE-PG mix, E. coli total, E. coli polar); assay: Synthetic phospholipid vesicle lysis (calcein leakage) assay; conditions: SSA 1.5 mM; thirty seconds after SSA addition; five vesicle types; in words
Description: Here, samples of phospholipid vesicles containing the fluorescent dye calcein were prepared. At internal vesicle concentrations, this dye undergoes self-quenching. […] The increase in fluorescence output is proportional to the % of vesicle lysis observed upon the addition of SSAs 1–14, when calibrated against a solution of vesicles know to have undergone 100% lysis, see Fig. 5.
Fig. 5 The average (n = 3) percentage lysis (%) of vesicles (30 μM) composed of five different lipid compositions (Table 2), with an internal calcein concentration of 70 mM at 298 K. The % vesicle lysis was calculated through observation of increasing fluorescence emission (λem = 515 nm), following the addition of SSAs […] (1.5 mM) in a H2O/EtOH 95 : 5 solution after: (a) 30 s and; (b) 15 min. Triton X-100 (1%) was used as a positive control for 100% vesicle lysis. Data normalised to the addition of a H2O/EtOH 95 : 5 solution. Red = PC, yellow = PG, green = PE-PG mix, blue = E. coli total, pink = E. coli polar. Error = standard error.
Section 2: General Methods […]
Preparation of vesicles: All lipids were purchased as powder stocks from Avanti Polar Lipids. Lipid vesicles were prepared according to standard procedures.1 Each phospholipid was dissolved in chloroform (~ 10 mL) and the solvent was removed under reduced pressure. The thin film of dried lipid was further dried in vacuo for at least 2 hours. Lipid films were resuspended in the desired buffer and subjected to 9 freeze-thaw cycles in liquid nitrogen and extruded 20 times through a 200 nm […]
Preparation of calcein loaded vesicles: Lipid films were resuspended in buffer A (70 mM calcein, 10 mM TRIS pH 8.5, 0.5 mM EDTA, 110 mM NaCl, pH adjusted to 6-7) and subjected to 9 freeze-thaw cycles in liquid nitrogen and extruded 20 times through a 200 nm polycarbonate membrane. The suspension was run down a size exclusion column packed with sephadex G-50 using buffer B (10 mM TRIS pH 8.5, 0.5 mM EDTA, 110 mM NaCl). The hydrodynamic dimeter of the lipids was monitored using an Anton Paar LitesizerTM 500 to ensure the separation of free and entrapped calcein.
Phospholipid concentration was adjusted to 30 µM for vesicle leakage experiments.
Vesicle leakage assay: Black bottom 96-well plates were prepared with the appropriate lipid solution (100 µL, 30 µM) and desired SSA solution (100 µL) prepared in H2O/EtOH 95: 5. A solution of 1 % Triton X-100 (16) was used for a 100 % lysis control and a H2O/EtOH 95: 5 solution was used as a 0 % lysis control. Fluorescent measurements were taken at 25 °C using an excitation value of 495 nm and an optimised gain of 983. Data were acquired in endpoint mode. All experiments were repeated in triplicate to ensure experimental reproducibility. […]
Data

E. coli DH10B [5] = assay: MIC50 determination and initial screening from OD600 growth curves, E. coli DH10B; format: cell-based, Escherichia coli; conditions: Escherichia coli, 15 h; Table S3, conversion of the mM values of Table 1; E. coli DH10B; after 900 mins
Text: as §1, §2, §3, §4, §5, §6, §7, §8, §9, §10, §11

Row | SMILES | MIC50 (MRSA USA300 [1]) | MIC50 MRSA (MRSA USA300 [2]) | initial antimicrobial screening, inhibition of growth, E. coli (E. coli DH10B [3]; 3.3 mM) | vesicle lysis activity [4] | MIC50 (E. coli DH10B [5]) | MIC50 E. coli (E. coli DH10B [3]; E. coli DH10B, n = 3, 0.5 McFarland standard, number in bracket = efficacy rank)
1 | CCCCNC(=O)NCS(=O)(=O)O [SSA 13] | 1990 µg/mL (≈ 9.47 mM) | 4.41(10) mM | ^c (SSA did not pass initial antimicrobial screening, exhibited <10% inhibition of growth at 3.3 mM after 900 min and therefore excluded from further study) | almost complete loss of any vesicle lysis activity | – | –
2 | CCCCNC(=S)NCS(=O)(=O)O [SSA 14] | 1440 µg/mL (≈ 6.34 mM) | 3.07(9) mM | – | almost complete loss of any vesicle lysis activity | 2820 µg/mL (≈ 12.5 mM) | 6.03(9) mM
